This assay has as its system 5-α-reductase. Nature of the assay: interruption of 5-α-reductase activity by copper containing peptides. The assay is classed as biochemical. The following applies: stated in words only; said to act by preventing binding of testosterone to the active site; no method or data given.
With Cu(II)-His-Val-His, the “interruption of the activity of 5-α-reductase” value is recorded as “interrupt 5-α-reductase”.
For Gly-His-Lys-Cu(II), the “interruption of the activity of 5-α-reductase” value is reported as “interrupt the activity of 5-α-reductase”.
With His-Ala-His-Cu(II) the entry was “interrupt 5-α-reductase”.

These data come from patent US20080312147A1, “Compositions and Methods for the Regulation of Hair Growth” (NUGENE INC., priority 2007, published 2008).
